Assay results reported in the supplement of paper PMC10307832.

Assays:
Experiment in all cases: relative viability (nuclei count vs DMSO), 5 days (fraction); higher = more cells survive
[1] = compound: C1CC(C2=C(C1)C3=C(N2)C=CC(=C3)Cl)C(=O)N [Selisistat] + Cc1nc(NC(=O)N2CCC[C@H]2C(N)=O)sc1-c1ccnc(C(C)(C)C(F)(F)F)c1 [Alpelisib] (partner 2 µM)
Outline: (§1)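 Medians of duplicate plates are given as relative viability. That measure is the nuclei count in treated wells divided by the count in vehicle wells. Counts were taken on 4× images of lung cancer cell lines in 1536-well plates, 5 days after pin-tool dosing the day after seeding with one drug alone or a fixed anchor-drug dose plus five library-drug doses (not always all listed) in √10 steps.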

[2] = compound: C1CC(C2=C(C1)C3=C(N2)C=CC(=C3)Cl)C(=O)N [Selisistat] + O=C(CCCCCCC(=O)Nc1ccccc1)NO [Vorinostat] (partner 1 µM)
Outline: as §1

[3] = compound: C1CC(C2=C(C1)C3=C(N2)C=CC(=C3)Cl)C(=O)N [Selisistat] + COc1cc2c(Oc3ccc(NC(=O)C4(C(=O)Nc5ccc(F)cc5)CC4)cc3F)ccnc2cc1OCCCN1CCOCC1 [Foretinib] (partner 0.25 µM)
Outline: as §1

[4] = compound: c1ccc2c(CCNc3ccc(Nc4ccncc4)cc3)c[nH]c2c1 [Serdemetan] + O=C(CCCCCCC(=O)Nc1ccccc1)NO [Vorinostat] (partner 1 µM)
Outline: as §1

With UMC-11 the relative viability ([1]; first compound 0.4 µM) was 1.19, the relative viability ([1]; first compound 1.265 µM) was 0.99 and the relative viability ([1]; first compound 4 µM) was 1.04. It also gave a relative viability ([1]; first compound 12.65 µM) of 0.994, a relative viability ([1]; first compound 40 µM) of 0.887 and a relative viability ([2]; first compound 0.4 µM) of 0.456. It also gave a relative viability ([2]; first compound 1.265 µM) of 0.477, a relative viability ([2]; first compound 4 µM) of 0.531 and a relative viability ([2]; first compound 12.65 µM) of 0.504. It also gave a relative viability ([2]; first compound 40 µM) of 0.593, a relative viability ([3]; first compound 0.4 µM) of 0.979 and a relative viability ([3]; first compound 1.265 µM) of 0.988. For the same cell line, the relative viability ([3]; first compound 4 µM) was 1.08, the relative viability ([3]; first compound 12.65 µM) was 0.982 and the relative viability ([3]; first compound 40 µM) was 1.02. It also gave a relative viability ([4]; first compound 0.04 µM) of 0.412, a relative viability ([4]; first compound 0.1265 µM) of 0.445 and a relative viability ([4]; first compound 0.4 µM) of 0.37. The relative viability ([4]; first compound 1.265 µM) was 0.268 and the relative viability ([4]; first compound 4 µM) was 0.335.
